Results as given in patent publication US8541197B2 (priority 2006, dated 2013).

How the values were obtained:
[1] = tested on: C. elegans; settings: worms on mutant or wild-type yeast with E. coli, treated with DPI; expected result of a planned test
Source text: The worms are carefully monitored twice a day from the time the eggs are exposed to the microbial cultures up to day 4, when the Dar phenotype is clearly visible. […] At day 4, the anal swelling (or Dar) phenotype is scored for worms plated on mixed lawns of E. coli and yeast and compared to worms plated on E. coli lawns without yeast or with heat inactivated yeast.
Briefly, worms reared on mixed cultures of mutant or wild-type yeast with E. coli will be treated with DPI. Its effect on the nematode host will be observed phenotypically (using the Dar phenotype described in Preliminary studies) and biochemically (using the peroxidase assay described in Specific Aim 1B).

[2] = tested on: ROS produced by the worms; settings: worms on mutant or wild-type yeast with E. coli, treated with DPI; expected result of a planned test
Source text: a) Peroxidase enzyme activity: A commercially available assay (Amplex Red peroxidase kit, Molecular Probes) will be used to test peroxidase activity (20). Briefly, ROS produced by the worms, presumably in response to pathogenic attack, oxidize the substrate Amplex Red, to form a red fluorescent product that can be measured spectrophotometrically.
Briefly, worms reared on mixed cultures of mutant or wild-type yeast with E. coli will be treated with DPI.

## O=S(=O)([O-])[O-].c1ccc2c(c1)[I+]c1ccccc1-2.c1ccc2c(c1)[I+]c1ccccc1-2 [DPI, Diphenylene iodonium sulfate]
[1]
  Dar phenotype: expect to observe the Dar phenotype
[2]
  peroxidase activity: low peroxidase activity
